# Reference: PubChem BioAssay AID1845196 (Molecular Pharmacology Branch, DTP, NCI, 2023)
# Tested on: 292921-168-R tumor spheroid viability
# Experiment: Anticancer human tumor 292921-168-R patient-derived pancreatic carcinoma cell line growth inhibition
# Details: spheroids with HUVEC and MSC; for IC50: curve of first compound; for viability, T/C: stronger effect = lower value
# In short: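 Complex spheroids of malignant cells with endothelial cells and mesenchymal stem cells; agents alone or combined, from near clinical Cmax (or 10 microM if unknown) down in half-log steps, 0.25% DMSO final.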
# [1] = second compound 0.003 µM, first compound 0.0316 µM
# [2] = second compound 0.003 µM, first compound 0.1 µM
# [3] = second compound 0.003 µM, first compound 0.316 µM
# [4] = second compound 0.003 µM, first compound 1 µM
# [5] = second compound 0.003 µM, first compound 3.16 µM
# [6] = second compound 0.003 µM, first compound 10 µM
# 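Further: spheroids exposed to compounds for 7 days.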
smiles,measurement,setting,value
CC(C)n1c(=O)n(C)c2cnc3cc(F)c(-c4ccc(OCCCN5CCCCC5)nc4)cc3c21 + CC[C@@]1(O)C(=O)OCc2c1cc1n(c2=O)Cc2cc3c(CN(C)C)c(O)ccc3nc2-1,IC50,second compound 0.003 µM,< 31.6 nM
same,IC50,second compound 0.00949 µM,< 31.6 nM
same,IC50,second compound 0.03 µM,< 31.6 nM
same,IC50,second compound 0.0949 µM,< 31.6 nM
same,IC50,second compound 0.3 µM,< 31.6 nM
same,"viability, T/C",[1],45.7%
same,"viability, T/C",[2],42.4%
same,"viability, T/C",[3],44.9%
same,"viability, T/C",[4],42.3%
same,"viability, T/C",[5],41.4%
same,"viability, T/C",[6],20.4%
same,"viability, T/C","second compound 0.00949 µM, first compound 0.0316 µM",25.4%
same,"viability, T/C","second compound 0.00949 µM, first compound 0.1 µM",23.7%
same,"viability, T/C","second compound 0.00949 µM, first compound 0.316 µM",22.3%
same,"viability, T/C","second compound 0.00949 µM, first compound 1 µM",25.2%
same,"viability, T/C","second compound 0.00949 µM, first compound 3.16 µM",24.4%
same,"viability, T/C","second compound 0.00949 µM, first compound 10 µM",18.7%
same,"viability, T/C","second compound 0.03 µM, first compound 0.0316 µM",20.2%
same,"viability, T/C","second compound 0.03 µM, first compound 0.1 µM",22.4%
same,"viability, T/C","second compound 0.03 µM, first compound 0.316 µM",20.4%
same,"viability, T/C","second compound 0.03 µM, first compound 1 µM",20.4%
same,"viability, T/C","second compound 0.03 µM, first compound 3.16 µM",23.2%
same,"viability, T/C","second compound 0.03 µM, first compound 10 µM",16.7%
same,"viability, T/C","second compound 0.0949 µM, first compound 0.0316 µM",13.2%
same,"viability, T/C","second compound 0.0949 µM, first compound 0.1 µM",14.7%
same,"viability, T/C","second compound 0.0949 µM, first compound 0.316 µM",13.7%
same,"viability, T/C","second compound 0.0949 µM, first compound 1 µM",14.8%
same,"viability, T/C","second compound 0.0949 µM, first compound 3.16 µM",16.8%
same,"viability, T/C","second compound 0.0949 µM, first compound 10 µM",14.8%
same,"viability, T/C","second compound 0.3 µM, first compound 0.0316 µM",4.72%
same,"viability, T/C","second compound 0.3 µM, first compound 0.1 µM",4.71%
same,"viability, T/C","second compound 0.3 µM, first compound 0.316 µM",5.4%
same,"viability, T/C","second compound 0.3 µM, first compound 1 µM",6.25%
same,"viability, T/C","second compound 0.3 µM, first compound 3.16 µM",8.92%
same,"viability, T/C","second compound 0.3 µM, first compound 10 µM",10.4%
CC(C)n1c(=O)n(C)c2cnc3cc(F)c(-c4ccc(OCCCN5CCCCC5)nc4)cc3c21 + COc1cc2c(cc1O)CCNC21CSC2c3c(OC(C)=O)c(C)c4c(c3C(COC1=O)N1C(O)C3Cc5cc(C)c(OC)c(O)c5C(C21)N3C)OCO4,IC50,second compound 30 pM,3530 nM
same,IC50,second compound 94.9 pM,< 31.6 nM
same,IC50,second compound 0.0003 µM,< 31.6 nM
same,IC50,second compound 0.000949 µM,< 31.6 nM
same,IC50,second compound 0.003 µM,< 31.6 nM
same,"viability, T/C","second compound 30 pM, first compound 0.0316 µM",52.2%
same,"viability, T/C","second compound 30 pM, first compound 0.1 µM",64.9%
same,"viability, T/C","second compound 30 pM, first compound 0.316 µM",60%
same,"viability, T/C","second compound 30 pM, first compound 1 µM",64%
same,"viability, T/C","second compound 30 pM, first compound 3.16 µM",49.6%
same,"viability, T/C","second compound 30 pM, first compound 10 µM",28.1%
same,"viability, T/C","second compound 94.9 pM, first compound 0.0316 µM",39.2%
same,"viability, T/C","second compound 94.9 pM, first compound 0.1 µM",36%
same,"viability, T/C","second compound 94.9 pM, first compound 0.316 µM",39%
same,"viability, T/C","second compound 94.9 pM, first compound 1 µM",35.8%
same,"viability, T/C","second compound 94.9 pM, first compound 3.16 µM",38.6%
same,"viability, T/C","second compound 94.9 pM, first compound 10 µM",23.9%
same,"viability, T/C","second compound 0.0003 µM, first compound 0.0316 µM",20.9%
same,"viability, T/C","second compound 0.0003 µM, first compound 0.1 µM",21.3%
same,"viability, T/C","second compound 0.0003 µM, first compound 0.316 µM",20.8%
same,"viability, T/C","second compound 0.0003 µM, first compound 1 µM",24.8%
same,"viability, T/C","second compound 0.0003 µM, first compound 3.16 µM",29.4%
same,"viability, T/C","second compound 0.0003 µM, first compound 10 µM",19.5%
same,"viability, T/C","second compound 0.000949 µM, first compound 0.0316 µM",2.03%
same,"viability, T/C","second compound 0.000949 µM, first compound 0.1 µM",2.57%
same,"viability, T/C","second compound 0.000949 µM, first compound 0.316 µM",2.94%
same,"viability, T/C","second compound 0.000949 µM, first compound 1 µM",4.97%
same,"viability, T/C","second compound 0.000949 µM, first compound 3.16 µM",7.02%
same,"viability, T/C","second compound 0.000949 µM, first compound 10 µM",5.36%
same,"viability, T/C",[1],0.16%
same,"viability, T/C",[2],0.18%
same,"viability, T/C",[3],0.2%
same,"viability, T/C",[4],0.15%
same,"viability, T/C",[5],0.13%
same,"viability, T/C",[6],0.22%
